For the data set the following is noted: compared with interferon alpha-2b.

As to “5′-^mCs^ocsAs^otstsGs^oTs^ocsas^mCs^oas^mCs^ots^mCs^omC^o-3′ (CCATTGTCACACTCC; all phosphorothioate, sugars by position and methylation of C not given here; further chemistry not fully specified) [miravirsen]”, the therapeutic index result is on record as “at least an order of magnitude greater than interferon alpha-2b”.
